The subject of data set [1] is Raf-1 mRNA. Description: RT-PCR analysis of Raf-1 mRNA in H460 cells. The data set is classed as cell-based, human. The protocol: (§1) FIGS. 10A-10D Effect of Oncrasin-1 on Raf-1 expression. (FIG. 10A) H460 cells were treated with various concentrations of Oncrasin-1 and harvested 24 h later for Western blot analysis. (FIG. 10B) Reverse transcriptase-based polymerase chain reaction (RT-PCR) assay. H460 cells treated with 1 μM Oncrasin-1 for various times or at various concentrations for 24 h, as indicated. (+, −, positive and negative controls). […] (FIG. 10D) Dose effects of Oncrasin-1 on stable cell lines transfected with Raf-1 plasmids. Parental H460 cells and H460 cells transfected with wild-type Raf-1 (Raf-1), constitutive Raf-1 (Raf-1C), or dominant-negative Raf-1 Raf-1/DN) were treated with various concentrations of Oncrasin-1, and cell viability was determined by SRB assay.
(§2) Suppression of Raf-1 expression by Oncrasin-1. […] To elucidate the roles of Raf-1 in Oncrasin-induced apoptosis, the inventors evaluated the expression of Raf-1 in H460 cells after treatment with different concentrations of Oncrasin-1. […] Because Raf-1 executes anti-apoptosis function via a variety of pathways. […] However, the resistance to Oncrasin-1 was more prominent in the constitutively active Raf-1-transfected cells than in cells with the wild-type Raf-1 (FIG. 10C and FIG. 10D).

Data set [2] has as its system caspase-3 and caspase-8. Description: Western blot for cleavage/activation of caspase-3 and caspase-8 in H460 cells. The data set is classed as cell-based, human. The following applies: 1 μM, 6 to 24 h, listed as Oncrasin-1. The protocol:
Apoptosis induction in H460 cells was also analyzed. H460 cells were treated with 1 μM of Oncrasin-1 for 6 to 24 h. Cells treated with DMSO were used as controls. The cell lysates were then used for a western blot assay to detect the cleavage of caspase-3 and caspase-8. […] After treatment with Oncrasin-1, the expression of some molecules involved in Ras signaling pathways was also evaluated. […] Active Raf-1 can be translocated to mitochondria where it executes antiapoptosis signaling by interaction with Bad or other protein substrates. Raf-1 is also a pivotal regulator of endothelial cell survival during angiogenesis. Ablation of Raf-1 renders cells hypersensitive to apoptosis despite normal regulation of extracellular signal-regulated kinases. Thus, it is possible to induce antitumor activity by suppressing raf-1.
Induction of apoptosis by Oncrasin. Many antitumor therapies act by inducing apoptosis in tumor cells (Fisher, 1994; Thompson, 1995). To determine whether the antitumor activity of Oncrasin-1 is due to the suppression of cell proliferation or to cell killing, T29, T29Kt1, and H460 cells were stained with annexin V/propidium iodide (PI) after treatment with Oncrasin-1 at 30 μM (for T29 or T29Kt1 cells) or 3 μM (for H460 cells). […]
On the technique in general: In western blotting, separated proteins are transferred to a membrane and probed.

Data set [3] deals with T29 cells.
Data set [4] deals with H460 cells transfected with Raf-1 constructs. Nature of the data set: SRB cell viability of H460 cells stably transfected with Raf-1 plasmids. The data set is classed as cell-based, human. The following applies: vs parental H460. The protocol:
as §1, §2

The test system of data set [5] is RNA transcription (HeLa cell nuclear extracts). Description: In vitro transcription assay with HeLa nuclear extracts. The format is biochemical. The protocol:
(§3) FIGS. 16A and 16B Effect on RNA processing machinary. (FIG. 16A) T29, T29Kt1, and H460 cells were treated with 10 μM Oncrasin-1 (T29 and T29Kt1) or 1 μM Oncrasin-1 (H460). Twelve hours later, cells were harvested for Western blot analysis for phosphorylation of RNA polymerase II and SR proteins. Cells treated with DMSO were used as control (C). (T) cells treated with Oncrasin-1. Arrows indicate reduced phosphorylation of the polymerase II (pPolII) and SR proteins (pSR) (FIG. 16B) In vitro transcription assay with HeLa cell nuclear extracts (Promoega). The assay was performed following manufacturers instructions. The concentrations used are indicated on the top of the panel. DRB was used as positive control for transcription inhibition.
(§4) To further test the role of RNA transcription and splicing in Oncrasin-mediated antitumor activity the phosphorylation of the largest subunit of RNA polymerase II and splicing factors were analyzed. T29, T29Kt1 and H460 cells were treated with Oncrasin-1 at an optimal concentration, around IC60 to IC80 for T29Kt1 and H460 cells. Cell lysates were collected 12 h after the treatment and subjected to Western blot analysis with antibodies specific for phosphorylated RNA polymerase If (H5, Covance Research Products, Inc., Berkeley, Calif.) and SR proteins (1H4, Zymed, obtained from Invitrogen, Carlsbad, Calif.).

In data set [6] the test system is phosphorylated RNA polymerase II and SR proteins. Nature of the data set: Western blot for phosphorylated RNA polymerase II and SR proteins. The data set is classed as cell-based, human. The following applies: 10 μM (T29Kt1) or 1 μM (H460), 12 h. The protocol:
as §3, §4

The test system of data set [7] is wild-type MEF. Description: Icmt-dependent growth inhibition, wild-type MEF. Particulars: up to 100 μM. The format is cell-based, mouse. An excerpt:
Oncrasin and Oncrasin Analogs. Chemically, Oncrasin-1 has the same core structure as indole-3-carbinol, a naturally occurring constituent of many plant foods that has been tested for the prevention and treatment of cancer (Brignall, 2001; Kelloff et al., 1996; Chinni et al., 2001). Oncrasin-1 also has structural similarity to sulindac (Taylor et al., 2000; Sun et al., 2002) and lonidamine (Ravagnan et al., 1999; Papaldo et al., 2003), both of which have been evaluated preclinically and clinically for treatment of cancers. […] Oncrasin compounds also bear a indole core structure as the small-molecule inhibitor of isoprenylcysteine carboxylmethyltransferase (Icmt), 2-[5-(3-methylphenyl)-1-octyl-1H-indol-3-yl]acetamide (cysmethynil), which also induces antitumor activity in Ras gene mutant cancer cells (Winter-Vann et al., 2005). […] Both wild-type MEF and Icmt−/− MEF (Bergo et al., 2004) (kindly provided by Dr. S G Young at the University of California, San Francisco) were resistant to Oncrasin-1.

The subject of data set [8] is Raf-1. Description: Western blot analysis of Raf-1 expression. Particulars: listed as Oncrasin-1. The format is cell-based, human. The procedure:
Ras Signaling Pathway and Molecular Mechanisms of Oncrasin-induced apoptosis. To investigate molecular mechanisms of apoptosis induction by Oncrasin compounds, levels several proteins that are involved in apoptosis and/or involved in Ras signaling pathways were determined, including Bax, Bik, Bc12, Bcl-XL, Raf-1, B-Raf, Akt, Mst1 and atypical protein kinase C (aPKC) zeta and PKCiota. To study which molecules are affected by Oncrasin treatment, T29, T29Kt1 and H460 cells were treated with Oncrasin-1 at an optimal concentration, around IC60 to IC80 for T29Kt1 and H460 cells. Cell lysates were collected 12 h after the treatment and subjected to Western blot analysis.
as §2

Entries after “also recorded” stand apart in the source; their conditions may differ. Read-outs that look alike come from different tables or passages of the source.

In the case of `O=Cc1cn(Cc2ccc(Cl)cc2)c2ccccc12` [Oncrasin K001, 1H-Indole-3-carboxaldehyde, 1-[(4-chlorophenyl)methyl]-(9CI)], in data set [1], the “Raf-1 mRNA level” value was “decreased in a dose- and time-dependent fashion”. Besides, the “activation of caspase-3 and caspase-8” value in data set [2] is “effectively activated caspase-3 and caspase-8; also recorded: Activation of caspase-3 and caspase-8 was detected; also recorded: effectively induce caspase-3 and caspase-8 activation”. Moreover, the “toxicity to T29 cells” value in data set [3] (at 33 μM (the highest concentration tested)) and in data set [3] (at any of the doses tested (dose response)) was “not toxic” throughout. Further, the “cytotoxicity in T29 cells” value in data set [3] (up to 100 μM, the highest concentration tested) was “no detectable cytotoxicity”. Also, the “susceptibility of H460 cells transfected with dominant-negative Raf-1” value in data set [4] is reported as “more sensitive”. In data set [4], the “susceptibility of H460 cells transfected with wild-type or constitutively active Raf-1” value was “less susceptible than parental H460 cells”. In addition, the “in vitro RNA transcription” value in data set [5] was “does not inhibit in vitro RNA transcription directly”. Besides, the “phosphorylated RNA polymerase II and certain SR proteins” value in data set [6] is reported as “dramatic suppression”. Moreover, the “growth inhibition, wild-type MEF” value in data set [7] is listed as “resistant”. The “Raf-1 level in H460 cells” value in data set [8] was “dramatically reduces raf-1; also recorded: down regulation; also recorded: dramatically reduced Raf-1 production; also recorded: dramatic reduction in Raf-1”.
